# Reference: patent US11958815B1, “N′-(2-(5-phenyl-1,3,4-oxadiazol-2-ylthio)acetoxy)-2-naphthimidamide as antimicrobial compound” (KING FAISAL UNIVERSITY, priority 2023, dated 2024)
# Columns and labels:
# Escherichia coli = experiment: Agar plate disc-diffusion, antibacterial activity by inhibition zone; settings: nutrient agar, 37° C., 48 hours, DMSO zone subtracted
# Pseudomonas aeruginosa = experiment: as above; settings: nutrient agar, 37° C., 48 hours, DMSO zone subtracted
# [1] = test system: Chrysosporium keratinophilum; experiment: Agar plate disc-diffusion, antifungal activity by inhibition zone; settings: Sabouraud's dextrose agar, 37° C., 72 hours, DMSO zone subtracted
# Staphylococcus aureus = experiment: Agar plate disc-diffusion, antibacterial activity by inhibition zone; settings: nutrient agar, 37° C., 48 hours, DMSO zone subtracted
# Aspergillus flavus = experiment: Agar plate disc-diffusion, antifungal activity by inhibition zone; settings: Sabouraud's dextrose agar, 37° C., 72 hours, DMSO zone subtracted
# Bacillus cereus = experiment: Agar plate disc-diffusion, antibacterial activity by inhibition zone; settings: nutrient agar, 37° C., 48 hours, DMSO zone subtracted
# [2] = A = concentration of comp. = 10,000 μL
# [3] = B = concentration of comp. = 30.000 μL
# [4] = C = concentration of comp. = 50,000 μL
structure (smiles),measurement,setting,value
"N/C(=N\OC(=O)CSc1nnc(-c2ccccc2)o1)c1ccc2ccccc2c1 [Comp 3, N′-(2-(5-phenyl-1,3,4-oxadiazol-2-ylthio)acetoxy)-2-naphthimidamide]","inhibition zone, Escherichia coli",Escherichia coli; [2],31 mm
same,"inhibition zone, Escherichia coli",Escherichia coli; [3],39 mm
same,"inhibition zone, Escherichia coli",Escherichia coli; [4],48 mm
same,"inhibition zone, Pseudomonas aeruginosa",Pseudomonas aeruginosa; [2],27 mm
same,"inhibition zone, Pseudomonas aeruginosa",Pseudomonas aeruginosa; [3],34 mm
same,"inhibition zone, Pseudomonas aeruginosa",Pseudomonas aeruginosa; [4],40 mm
same,"inhibition zone, Chrysosporium keratinophilum",[1]; [2],31 mm
same,"inhibition zone, Chrysosporium keratinophilum",[1]; [3],39 mm
same,"inhibition zone, Chrysosporium keratinophilum",[1]; [4],45 mm
same,"inhibition zone, Staphylococcus aureus",Staphylococcus aureus; [2],25 mm
same,"inhibition zone, Staphylococcus aureus",Staphylococcus aureus; [3],31 mm
same,"inhibition zone, Staphylococcus aureus",Staphylococcus aureus; [4],40 mm
same,"inhibition zone, Aspergillus flavus",Aspergillus flavus; [2],26 mm
same,"inhibition zone, Aspergillus flavus",Aspergillus flavus; [3],29 mm
same,"inhibition zone, Aspergillus flavus",Aspergillus flavus; [4],39 mm
same,"inhibition zone, Bacillus Cereus",Bacillus cereus; [2],28 mm
same,"inhibition zone, Bacillus Cereus",Bacillus cereus; [3],32 mm
same,"inhibition zone, Bacillus Cereus",Bacillus cereus; [4],40 mm
